According to patent US20100087546A1, “USE OF DIMETHYL SULFONE (MSM) TO REDUCE HO[…]” (BIOGENIC INNOVATIONS, LLC, priority 2005, published 2010):
Entries after “also recorded” stand apart in the source; their conditions may differ.

How the values were obtained:
Assay type in all cases: in vivo, human
[1] = 2008 acute oral dosing study, pharmacokinetic blood draws (serum dimethyl sulfone levels)
Procedure: In a study directed by Applicant or its related affiliate in 2008, six participants received three doses of dimethyl sulfone at three acute test visits spaced one week apart. Subjects were monitored for four hours post dose, with pharmacokinetic (PK) and phamacodynamic blood draws at 0, 45, 90, 135, 180 and 240 minutes post dosing. Subjects also provided a 24-hour post-dose urine collection for assay of dimethyl sulfone and sulfate levels.
Rough estimates have been obtained for the half times of absorption (½ hour) and elimination (8 hours).

[2] = test system: malondialdehyde (MDA); test: Urine malondialdehyde (MDA) measured at baseline and 12 weeks in the 2005 osteoarthritis study; conditions: 6 g/day, baseline versus 12 weeks
Description: (§1) In 2005, Applicant commissioned a study to determine the efficacy of dimethyl sulfone in the treatment of pain and physical function impairment due to osteoarthritis. The results of the study are published in Kim, et al, Efficacy of methylsulfonylmethane (MSM) in osteoarthritis pain of the knee: a pilot clinical trial. OsteoArthritis and Cartilage, herein incorporated by reference in its entirety. Patients were given dosage of 6 g of dimethyl sulfone (Distilled MSM microprill (OptiMSM®, Cardinal Nutrition, Vancouver, Wash.)) per day in a stepwise approach. In week 1, dosages started with 2 g/day in two divided doses for 3 days, and then increased to 4 g/day for 4 days. Week 2, increased to 6 g/day. In the control group, a placebo was administered that consisted of inert ingredients and that was indistinguishable in color, size and taste from the dimethyl sulfone.
(§2) During the 2005 osteoarthritis study, described above, dimethyl sulfone's potential activities were also evaluated. Serum homocysteine, high sensitive C-reactive protein (CRP), erythrocyte sedimentation rate (ESR), and urine malondialdehyde (MDA) were measured at baseline and 12 weeks.
The combined decreases in homocysteine and urine MDA during the 2005 osteoarthritis study supports the role of dimethyl sulfone in metabolic processes requiring methylation, such as antioxidant capacities. […]

[3] = test system: homocysteine; test: Serum homocysteine measured at baseline and 12 weeks in the 2005 osteoarthritis study; conditions: 6 g/day, baseline versus 12 weeks, FIG. 2
Description: as §1, §2
Since dimethyl sulfone is a putative methyl donor, it was believed that dimethyl sulfone may act as a co-factor in reducing homocysteine levels. […]

[4] = test system: osteoarthritis pain of the knee; test: 12-week randomized, double-blind, placebo-controlled trial in osteoarthritis of the knee (WOMAC pain and physical function); conditions: 3 g twice a day (6 g/day) for 12 weeks, oral, OA of the knee, versus placebo
Description: as §1
In a study directed by Applicant or its related affiliate, and as reported in Kim et al (published in 2006), herein incorporated by reference in its entirety, the effects of dimethyl sulfone on OA of the knee were evaluated. Qualified patients (n=50) were as-signed to MSM (n=25) or placebo (n=25) in a 12-week randomized, double-blind, placebo-controlled trial using computer-generated random numbers (FIG. 1).
At week 1, subjects were administered 2 g/day in two divided doses for 3 days, and then increased to 4 g/day for 4 days. […]

[5] = blood draws 0-240 minutes post dosing
[6] = six participants, rough estimate

dimethyl sulfone
absorption from the upper gastrointestinal tract (serum level pattern) [1, 5]: fairly rapid absorption from the upper gastrointestinal tract (within an hour)
elimination from the bloodstream (serum level pattern) [1, 5]: slower elimination from the bloodstream (over the course of one or two days)
half time of absorption [1, 6]: ½
half time of elimination [1, 6]: ~8 h
urine MDA [2]: decreases
serum homocysteine levels [3]: significantly decreased; also recorded: decreases
symptoms of pain and physical function (WOMAC subscales) [4]: produced improvement in two of the three WOMAC subscales, pain and physical function
symptoms of pain and physical function (WOMAC subscales) ([4]; listed as dimethyl sulfone): improved symptoms of pain and physical function
